Data on 18 compounds can be found in US10328053B2 (Gilead Sciences, Inc., priority 2016, dated 2019).

This data set can be described thus: Hepatic Stability Assay (in vitro half-life method). The data set is classed as in vitro ADME. Also on record: dose or concentration left out as unconfirmed. The settings on record: pooled cryopreserved hepatocytes, 37° C., 1×10^6 cells/mL, 0-6 hours, LC-MS/MS, 39.5 hours is the maximum detectable half life, read-out: t½ (converted). The protocol:
Hepatic Stability Assay The metabolic stability of certain compounds disclosed herein was assessed in vitro in pooled cryopreserved hepatocytes using the in vitro half-life method. Incubations were at 37° C. and final concentrations in the incubations were 1×10^6 cells/mL and […] test concentration of the compound. Aliquots were sequentially removed after 0, 1, 3 and 6 hours and analyzed by LC-MS/MS. In vitro half-life was determined by measuring the rate of disappearance of the compound and then scaled to predicted hepatic clearance using the well-stirred model. […] As such, compounds having a value of 39.5 may have a half live that exceeds 39.5 hours.

With `Cc1c(C(=O)C(=O)NC2(c3c[nH]nn3)CC2)c2n(c1C(=O)Nc1cc(F)cc(Cl)c1)CCC2` [Example 101, 7-(2-((1-(1H-1,2,3-triazol-4-yl)cyclopropyl)amino)-2-oxoacetyl)-N-(3-chloro-5-fluorophenyl)-6-methyl-2,3-dihydro-1H-pyrrolizine-5-carboxamide], the half-life is 7 h.
Consider `CNC(=O)C1(NC(=O)C(=O)c2c(C)c(C(=O)Nc3ccc(F)c(Cl)c3F)n3c2CCC3)CC(F)(F)C1` [Example 127, N-(3-chloro-2,4-difluorophenyl)-7-(2-((3,3-difluoro-1-(methylcarbamoyl)cyclobutyl)amino)-2-oxoacetyl)-6-methyl-2,3-dihydro-1H-pyrrolizine-5-carboxamide], for which the half-life was 15.2 h.
In the case of `Cc1c(C(=O)C(=O)NC2(c3c[nH]nn3)CC2)c2n(c1C(=O)Nc1ccc(F)c(F)c1)CCC2` [Example 43, 7-(2-((1-(1H-1,2,3-triazol-4-yl)cyclopropyl)amino)-2-oxoacetyl)-N-(3,4-difluorophenyl)-6-methyl-2,3-dihydro-1H-pyrrolizine-5-carboxamide], the half-life is 16 h.
In the case of `Cc1c(C(=O)C(=O)NC2(c3c[nH]nn3)CC2)c2n(c1C(=O)Nc1cc(F)c(F)c(F)c1)CCC2` [Example 26, 7-(2-((1-(1H-1,2,3-triazol-4-yl)cyclopropyl)amino)-2-oxoacetyl)-6-methyl-N-(3,4,5-trifluorophenyl)-2,3-dihydro-1H-pyrrolizine-5-carboxamide] it was 8.2 h; in that of `Cc1c(C(=O)C(=O)NC2(C(N)=O)CC(F)(F)C2)c2n(c1C(=O)Nc1cc(F)c(F)c(F)c1)CCC2` [Example 140, 7-(2-((1-carbamoyl-3,3-difluorocyclobutyl)amino)-2-oxoacetyl)-6-methyl-N-(3,4,5-trifluorophenyl)-2,3-dihydro-1H-pyrrolizine-5-carboxamide], 13.5 h.
In the case of `Cc1c(C(=O)C(=O)NC2(CN3CC4(COC4)C3)CC(F)(F)C2)c2n(c1C(=O)Nc1ccc(F)c(Cl)c1)CCC2` [Example 10, 7-(2-((1-((2-oxa-6-azaspiro[3.3]heptan-6-yl)methyl)-3,3-difluorocyclobutyl)amino)-2-oxoacetyl)-N-(3-chloro-4-fluorophenyl)-6-methyl-2,3-dihydro-1H-pyrrolizine-5-carboxamide] it was 1 h.
For `Cc1c(C(=O)C(=O)NC2(C)CS(=O)(=O)C2)c2n(c1C(=O)Nc1ccc(F)c(Cl)c1)[C@@H]1C[C@@H]1C2` [Example 71, (1aR,6aR)—N-(3-chloro-4-fluorophenyl)-4-methyl-5-(2-((3-methyl-1,1-dioxidothietan-3-yl)amino)-2-oxoacetyl)-1,1a,6,6a-tetrahydrocyclopropa[b]pyrrolizine-3-carboxamide], the half-life was 7.3 h.
In the case of `CNC(=O)C1(NC(=O)C(=O)c2c(C)c(C(=O)Nc3cc(F)c(F)c(Cl)c3)n3c2CCC3)CC(F)(F)C1` [Example 129, N-(3-chloro-4,5-difluorophenyl)-7-(2-((3,3-difluoro-1-(methylcarbamoyl)cyclobutyl)amino)-2-oxoacetyl)-6-methyl-2,3-dihydro-1H-pyrrolizine-5-carboxamide] it was 20.8 h.
The value for `Cc1c(C(=O)C(=O)N[C@H](C)C(F)(F)F)c2n(c1C(=O)Nc1ccc(F)c(Cl)c1)CCC2` [Example 2, (R)—N-(3-chloro-4-fluorophenyl)-6-methyl-7-(2-oxo-2-((1,1,1-trifluoropropan-2-yl)amino)acetyl)-2,3-dihydro-1H-pyrrolizine-5-carboxamide] was 15 h.
In the case of `CNC(=O)C1(NC(=O)C(=O)c2c(C)c(C(=O)Nc3ccc(F)c(C#N)c3)n3c2C[C@H]2C[C@H]23)CC(F)(F)C1` [Example 30, (1aR,6aR)—N-(3-cyano-4-fluorophenyl)-5-(2-((3,3-difluoro-1-(methylcarbamoyl)cyclobutyl)amino)-2-oxoacetyl)-4-methyl-1,1a,6,6a-tetrahydrocyclopropa[b]pyrrolizine-3-carboxamide] it was 27.2 h.
With `Cc1c(C(=O)C(=O)NC2(c3nncs3)CC2)c2n(c1C(=O)Nc1ccc(F)c(C#N)c1)[C@@H]1C[C@@H]1C2` [Example 58, (1aR,6aR)-5-(2-((1-(1,3,4-thiadiazol-2-yl)cyclopropyl)amino)-2-oxoacetyl)-N-(3-cyano-4-fluorophenyl)-4-methyl-1,1a,6,6a-tetrahydrocyclopropa[b]pyrrolizine-3-carboxamide], the half-life is 38.5 h.
Turning to `Cc1c(C(=O)C(=O)NC2(c3c[nH]nn3)CC2)c2n(c1C(=O)Nc1ccnc(C(F)F)c1F)[C@@H]1C[C@@H]1C2` [Example 63, (1aR,6aR)-5-(2-((1-(1H-1,2,3-triazol-4-yl)cyclopropyl)amino)-2-oxoacetyl)-N-(2-(difluoromethyl)-3-fluoropyridin-4-yl)-4-methyl-1,1a,6,6a-tetrahydrocyclopropa[b]pyrrolizine-3-carboxamide], the half-life is 11.2 h.
The value for `CNC(=O)C1(NC(=O)C(=O)c2c(C)c(C(=O)Nc3ccc(F)c(Cl)c3)n3c2CCC3)CC(F)(F)C1` [Example 3, N-(3-chloro-4-fluorophenyl)-7-(2-((3,3-difluoro-1-(methylcarbamoyl)cyclobutyl)amino)-2-oxoacetyl)-6-methyl-2,3-dihydro-1H-pyrrolizine-5-carboxamide] was 35.1 h; that for `Cc1c(C(=O)C(=O)NC2(c3c[nH]nn3)CC2)c2n(c1C(=O)Nc1ccc(F)c(F)c1)[C@@H]1C[C@@H]1C2` [Example 81, (1aR,6aR)-5-(2-((1-(1H-1,2,3-triazol-4-yl)cyclopropyl)amino)-2-oxoacetyl)-N-(3,4-difluorophenyl)-4-methyl-1,1a,6,6a-tetrahydrocyclopropa[b]pyrrolizine-3-carboxamide] was 8 h; that for `CNC(=O)C1(NC(=O)C(=O)c2c(C)c(C(=O)Nc3ccc(F)c(Cl)c3)n3c2CCC3C)CC(F)(F)C1` (racemic) [Example 18, N-(3-chloro-4-fluorophenyl)-7-(2-((3,3-difluoro-1-(methylcarbamoyl)cyclobutyl)amino)-2-oxoacetyl)-3,6-dimethyl-2,3-dihydro-1H-pyrrolizine-5-carboxamide] was 6 h.
In the case of `Cc1c(C(=O)C(=O)N[C@]2(C)C[S@+]([O-])C2)c2n(c1C(=O)Nc1ccc(F)c(F)c1)CCC2` [Example 152, N-(3,4-difluorophenyl)-6-methyl-7-(2-(((1s,3s)-3-methyl-1-oxidothietan-3-yl)amino)-2-oxoacetyl)-2,3-dihydro-1H-pyrrolizine-5-carboxamide] it was 10.5 h; in that of `Cc1c(C(=O)C(=O)NC2(c3c[nH]nn3)CC(F)(F)C2)c2n(c1C(=O)Nc1ccnc(C(F)F)c1F)C[C@H](F)C2` [Example 134, (R)-7-(2-((3,3-difluoro-1-(1H-1,2,3-triazol-4-yl)cyclobutyl)amino)-2-oxoacetyl)-N-(2-(difluoromethyl)-3-fluoropyridin-4-yl)-2-fluoro-6-methyl-2,3-dihydro-1H-pyrrolizine-5-carboxamide], 17.9 h.
On to `Cc1c(C(=O)C(=O)NC2(c3cnn[nH]3)CC2)c2n(c1C(=O)Nc1cc(Cl)ccc1F)CCC2` [Example 86, 7-(2-((1-(1H-1,2,3-triazol-5-yl)cyclopropyl)amino)-2-oxoacetyl)-N-(5-chloro-2-fluorophenyl)-6-methyl-2,3-dihydro-1H-pyrrolizine-5-carboxamide], for which the half-life was 9.4 h.
